How the values were obtained:
[1] = tested on: smooth muscle cells; experiment: smooth muscle proliferation stimulated by PDGF and IL-1; format: cell-based
From the text: CT1501R and PTX were separately added to the cells two hours prior to activation with PDGF and IL-1.

[2] = tested on: IL-1-α release in LPS activated PEC; experiment: IL-1α release from LPS activated PEC, ELISA; format: cell-based; settings: Mus musculus, at 24 hours after LPS, read-out: maximum inhibition of IL-1α release
Procedure: Cells were isolated and treated with or without 250 μM CT1501R one hour prior to activation with 10 μg/ml LPS. At various times later, supernatants were harvested and assayed for IL-1-α by ELISA (+/-SD)
(§1) Murine peritoneal exudate cell macrophages (PEC) were isolated by perfusion of mouse peritoneum and plated into 96-well trays at 5×10^5 cells per well. Cells were stimulated with 5 μg/ml Salmonella abortus equi-derived endotoxin CLPS; Sigma Chemical Co., L-1887) or 50 ng/ml IL-1α (Genzyme; Cambridge, Mass.) with or without the addition of CT1501R added to the cultures one hour prior to addition of the stimulus. At various times thereafter, supernatants were removed and levels of either TNF-α or IL-1α were assayed using commercial 96-well microtiter immunoassay kits (Genzyme; TNF; Endogen, Boston, Mass.; IL-1α) according to manufacturer's specifications. For the adhesion studies, early passage human umbilical vein endothelial cells (HUVEC) were obtained from commercial suppliers (Clonetics, San Diego, Calif. or Cell Systems, Seattle, Wash.) and cultured in defined, Hepes buffered, serum free medium (Cell Systems, cat 301-180) supplemented with acidic FGF (Cell Systems cat 401-111). […] After addition of […] Hanks Balanced Salt Solution (HBSS), the microtiter plate was then analyzed on a Millipore Cytofiuor fluorescent plate reader (excitation 488 nm; emission 525 nm). […]

[3] = tested on: adhesion of activated U937 cells to HUVEC; experiment: adhesion of IL-1α activated U937 cells to non-stimulated HUVEC; format: cell-based, human; settings: 250 μM pre-treatment of U937 cells
Procedure: U937 cells were stimulated with various concentrations of IL-1-α with or without the addition of 250 µM CT1501R one hour prior to addition of IL-1-α. Twelve hours later, the U937 cells were stained with BCECF and allowed to adhere to HUVEC. FIG. 22 is the relative BCECF fluorescence (+/-SD) for each of the treatment groups.
as §1, with “specifications.” for “specifications. For the adhesion studies, early passage human umbilical vein endothelial cells (HUVEC) were obtained from commercial suppliers (Clonetics, San Diego, Calif. or Cell Systems, Seattle, Wash.) and cultured in defined, Hepes buffered, serum free medium (Cell Systems, cat 301-180) supplemented with acidic FGF (Cell Systems cat 401-111).”

[4] = tested on: hair follicles of nu/nu mice; experiment: nude mouse hair studies, topical application; format: in vivo
From the text: This example illustrates nude mouse hair studies involving topical application of CT1501R. Six to eight week old, female, nu/nu mice from Charles River Laboratories were housed at Biosupport Research Support Services (Seattle, Wash.) in autoclaved micro isolator units with hyperchlorinated autoclaved water, irradiated rodent chow and kept under a laminar flow hood. Caging was changed weekly, and water was changed twice weekly. The mice were acclimated for 5 days before beginning each study.
The first topical formulation was prepared by adding CT1501R to a heated hydrophilic ointment (USP) at a 1% concentration, and allowed to solidify.
Nude mice were painted twice daily for 16 days with the first topical formulation of CT1501R on the left flank and another compound in the same base on the right flank with sterile applicators. Mice were handled under the laminar flow hood with applicator wearing face mask and sterile gloves. After 16 days, one mouse was sacrificed by cervical dislocation and skin biopsies were taken of the treated areas of the shoulder/flank and from the non-treated area of the dorsal pelvis (rump). Specimens were placed in 10% buffered formalin solution. Biopsies were sent to a veterinary dermopathologist for histopathology. Six weeks following treatment, a second mouse was euthanatized and biopsied the same as the first. Samples were sent for histopathology.
In a second experiment, topical application of CT1501R was performed along with a commercial topical minoxidil preparation (Rogaine®, Upjohn) that is approved for a hair growth indication. Five to six week old, female, nu/nu mice from Bantin and Kingman Universal were housed at Biosupport Research Support Services (Seattle, Wash.) in autoclaved micro isolator units with hyper chlorinated autoclaved water, irradiated rodent chow and kept under a laminar flow hood. Caging was changed weekly, and water was changed twice weekly. Mice were acclimated for 7 days before beginning study, […]

[5] = tested on: hematopoietic reconstitution following 5-FU; experiment: 5-fluorouracil (5-FU) induced bone marrow suppression in mice; format: in vivo, Balb/C mice
From the text: Groups of 4 mice were phlebotomized at each time point. The values on the graph represent the means ±1 SD.
Groups of 4 mice were phlebotomized at each time point. The values on the group represent the means ±1 SD.
Groups of 4 mice were sacrificed and had one femur harvested at each time point. The values on the graph represent the means ±1 SD of the mean number of colonies per each individual tested in triplicate cultures.
Female Balb/C mice (VAF, Charles River Laboratories, 6-8 wks of age approximately 17.3-18.5 g) were treated with 5-FU at a dose of 200 mg/kg intraperitoneally (i.p.) in experiment 1 or 190 μg/kg in experiment 2. […] Mice (4 per group) were sacrificed starting 2 days after 5-FU by cardiac puncture under halothane anesthesia followed by cervical dislocation and had total white blood cell counts and differential counts performed. Platelet counts were performed using phase-contrast microscopy in duplicate. Femurs were harvested and the number of granulocyte-macrophage colony forming cells (CFU-GM) per femur were measured using a standard assay (Terry Fox Laboratories, Vancouver, British Columbia) using pokeweed mitogen spleen conditioned medium as the growth factor. Each femur was plated separately in triplicate and the mean and means for each experimental point was calculated. Standard deviations used for staffstidal analysis were deviations of the mean number of colonies measured for each femur.
Experiment 2 was similar to experiment 1 with the following exceptions: (1) the dose of 5-FU was decreased to 185 mg/kg; (2) daily blood draws were performed between days 10 and 15; and (3) platelet counts were performed.

C[C@@H](O)CCCCn1c(=O)c2c(ncn2C)n(C)c1=O [CT1501R, (R)-1-(5-hydroxyhexyl)-3,7-dimethylxanthine]
activity compared with PTX, smooth muscle cell proliferation [1]: more active than PTX
inhibition of smooth muscle cell proliferation ([1]; drug added two hours prior to activation): inhibited smooth muscle cell proliferation at the higher doses tested
inhibition at 250 µM [2]: ~50%
IL-1α mediated increase in adhesion of U937 cells to HUVEC [3]: effectively blocked the IL-1α mediated increase in adhesion to HUVEC to near background levels
hair follicles, histopathology of treated vs non treated skin sections ([4]; first experiment, 1% in hydrophilic ointment, twice daily for 16 days): significantly more normal appearing hair follicles than the non treated sections
hair follicles, subjective histopathological examination ([4]; second experiment, 60% ETOH, 10% water, 30% PEG base, twice daily, 34 days): greatest concentration of hair folicles
increase in number of CFU-GM/femur during hematopoietic recovery vs control ([5]; 5-FU treated mice): approximately two-fold increase
CFU-GM/femur vs vehicle control and day 0 ([5]; experiment 1, day 13 (p=0.024 vs vehicle, p=0.05 vs day 0)): significantly more CFU-GM/femur on day 13
ANC (absolute neutrophil count), mean ±SD ([5]; experiment 1, day 13 after 5-FU (control 180±10/mm^3, P=0.05)): 440±17 /mm^3
WBC of 5-FU treated mice vs vehicle control ([5]; experiment 1, days 6 and 10 (p=0.019 and 0.036)): significantly lower in vehicle treated controls than in CT1501R treated mice
WBC vs vehicle control ([5]; experiment 2): significantly higher WBC's
neutrophil recovery ([5]; experiment 2): Neutrophil recovery was accelerated
number of cells per femur during hematopoietic recovery vs control ([5]; experiment 2): number of cells per femur was increased
platelet count nadir and rate of recovery vs vehicle control ([5]; experiment 2): platelet count nadir and rate of recovery were also increased
WBC and ANC, mice without 5-FU ([5]; i.p. bid, no 5-FU): remained within 1 SD of control values
adverse effects, mice without 5-FU ([5]; i.p. bid, no 5-FU): no apparent adverse effects
rise in ANC and CFU-GM/femur associated with vehicle injections, mice without 5-FU ([5]; no 5-FU, twice daily i.p. injections): prevented both the rise in ANC and rise in CFU-GM/femur
